The values that follow come from ChEMBL document CHEMBL1201862, “PubChem BioAssay data set” (2004).

Among the test systems are OVCAR-5; NCI-H522; ACHN; SF-295; HCC 2998; SNB-19; OVCAR-4; NCI/ADR-RES; UACC-257; DU-145; PC-3; BT-549; SF-268; TK-10; MOLT-4; OVCAR-8; RXF 393; A549; A498; Hs-578T.
Common to all, as to test: inhibition of tumour cell growth, NCI panel, 48 h

Structures are written as SMILES.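 Test compounds were applied to cells in 96-well plates for 48 hours at 5 doses. Abbreviation: GI50, concentration required for 50% inhibition of growth.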 The source made the active and inactive calls. Cut-off read from the data, not from the text of the source: active = GI50 up to about 1.1 µM and inactive = higher. Starred links: 1 amine or outer side, 2 acyl side, 3 side chain; linkers in the order of their positions; H or OH if unused. Positions of bridges follow the written chain, without caps; N, C: chain ends. Non-standard residues stand in square brackets, D forms with d. Residues, ends and D or L forms follow the SMILES beside them. ξ: configuration not given here. X37 = CC[C@H](C)[C@@H](N[*:1])[C@@H](O)CC(=O)O[C@H](C(=O)[C@H](C)C(=O)[*:2])C(C)C; NMeY = CN[C@@H](Cc1ccc(O)cc1)C(=O)O; dNMeL = CN[C@H](CC(C)C)C(=O)O; ξΔPro = O=C(O)C1C=CCN1 Where only a bound is given, the exact number is not on record here.

As to `COc1ccc(C2c3cc4c(cc3OC(NNC(N)=O)C2C)OCO4)cc1` (stereo not given), the GI50 with OVCAR-5 is 26.6 µM (inactive); with NCI-H522 it was 3.45 µM (inactive); in the experiment on ACHN, 8.75 µM (inactive); in the experiment with SF-295 it was 3.58 µM (inactive); in the experiment on HCC 2998 it was 8.51 µM (inactive); in the experiment with SNB-19, 13.7 µM (inactive). The GI50 with OVCAR-4 is 56.4 µM (inactive); in the experiment with NCI/ADR-RES it was 7.5 µM (inactive); in the experiment with UACC-257, 10.2 µM (inactive); in the experiment on DU-145, 22.3 µM (inactive); in the experiment on PC-3 it was 4.69 µM (inactive); with BT-549, 7.16 µM (inactive). In addition, the GI50 was 11.2 µM (inactive) with SF-268; 25.8 µM (inactive) with TK-10; 3.94 µM (inactive) in the experiment with MOLT-4; 6.67 µM (inactive) in the experiment on OVCAR-8; 6.92 µM (inactive) in the experiment on RXF 393; 7.73 µM (inactive) in the experiment with A549. Also, the GI50 with A498 was 2.87 µM (inactive); in the experiment with Hs-578T, 3.53 µM (inactive).
For the molecule `CCOC(=O)C1(Cc2ccccc2)C=CN(C(=O)c2ccccc2)C=C1`, the GI50 was > 100 µM (inactive) with OVCAR-5; 24.5 µM (inactive) in the experiment with NCI-H522; 34.1 µM (inactive) with ACHN; 36 µM (inactive) in the experiment with SF-295; 63.4 µM (inactive) in the experiment on HCC 2998; 46.5 µM (inactive) with SNB-19. Also, the GI50 is 42.8 µM (inactive) in the experiment with OVCAR-4; 36.6 µM (inactive) in the experiment with NCI/ADR-RES; 20.6 µM (inactive) with UACC-257; 57.3 µM (inactive) with DU-145; 25.4 µM (inactive) with PC-3; 33.8 µM (inactive) in the experiment on BT-549. The GI50 in the experiment on SF-268 was 47.4 µM (inactive); in the experiment with TK-10 it was 28.4 µM (inactive); with MOLT-4, 20.6 µM (inactive); in the experiment with OVCAR-8, 34.4 µM (inactive); with RXF 393, 27.5 µM (inactive); in the experiment on A549, 42.4 µM (inactive). Further, the results for the GI50 with A498 and in the experiment with Hs-578T were 22.9 µM (inactive) and 32.5 µM (inactive), respectively.
On to `CCC1(CCSC(=N)N)C(=O)NC(=O)NC1=O`, for which the GI50 with OVCAR-5, in the experiment with NCI-H522, with ACHN, in the experiment with SF-295, with HCC 2998 and in the experiment with SNB-19 was > 100 µM (inactive) throughout. Moreover, the GI50 in the experiment with OVCAR-4, in the experiment on NCI/ADR-RES, with UACC-257, in the experiment with DU-145, in the experiment on PC-3 and with BT-549 was > 100 µM (inactive) throughout. The GI50 in the experiment with SF-268, with TK-10, in the experiment on MOLT-4, in the experiment on OVCAR-8, in the experiment with RXF 393 and in the experiment with A549 was > 100 µM (inactive) in each case. Also, the GI50 in the experiment with A498 and with Hs-578T was > 100 µM (inactive) throughout.
Consider `O=S(=O)(CCCCl)SCCCCl`, for which the GI50 in the experiment with OVCAR-5 was > 64 µM (inactive); in the experiment on NCI-H522, 17.1 µM (inactive); in the experiment with ACHN, 55.7 µM (inactive); with SF-295 it was > 64.9 µM (inactive); in the experiment with HCC 2998, > 100 µM (inactive); with SNB-19, > 95.1 µM (inactive). Further, the GI50 was 15.3 µM (inactive) in the experiment on OVCAR-4; 31.9 µM (inactive) in the experiment on NCI/ADR-RES; 45.9 µM (inactive) with UACC-257; 63.8 µM (inactive) in the experiment with DU-145; 30.1 µM (inactive) in the experiment on PC-3; 11.2 µM (inactive) with BT-549. In addition, the GI50 is 26.7 µM (inactive) with SF-268; 74.6 µM (inactive) in the experiment with TK-10; 3.17 µM (inactive) in the experiment on MOLT-4; 13.3 µM (inactive) in the experiment on OVCAR-8; 30.3 µM (inactive) in the experiment on RXF 393; 68.4 µM (inactive) in the experiment on A549. In addition, the GI50 with A498 was > 55.6 µM (inactive); in the experiment with Hs-578T, 27.8 µM (inactive).
Take `Cc1cc2c(cc1Cl)SC(NNC1=NCCN1)=NS2(=O)=O`: the GI50 with OVCAR-5, in the experiment with NCI-H522, in the experiment on ACHN, with SF-295, in the experiment on HCC 2998 and in the experiment with SNB-19 was > 10 µM (inactive) throughout. Also, the GI50 with OVCAR-4, with NCI/ADR-RES, in the experiment on UACC-257, in the experiment on DU-145, in the experiment with PC-3 and in the experiment with BT-549 was > 10 µM (inactive) each time. Further, the GI50 in the experiment on SF-268, with TK-10, in the experiment with MOLT-4, in the experiment on OVCAR-8, in the experiment with RXF 393 and in the experiment on A549 was > 10 µM (inactive) in each case. Besides, the GI50 with A498 and in the experiment on Hs-578T was > 10 µM (inactive) in each case.
Turning to `Cc1c(F)c(N)c2c(=O)cc(-c3ccc(NC(=O)CN(C)C)c(F)c3)oc2c1F`, the GI50 is 57 µM (inactive) with OVCAR-5; 55.1 µM (inactive) in the experiment on NCI-H522; > 100 µM (inactive) in the experiment with ACHN; 68.1 µM (inactive) in the experiment with SF-295; 21.5 µM (inactive) in the experiment with HCC 2998; 54.1 µM (inactive) in the experiment on SNB-19. Further, the GI50 in the experiment with OVCAR-4 is 23.6 µM (inactive); with NCI/ADR-RES, 68.7 µM (inactive); in the experiment on UACC-257, > 100 µM (inactive); with DU-145 it was 82.8 µM (inactive); with PC-3 it was 38.3 µM (inactive); in the experiment with BT-549 it was > 100 µM (inactive). Also, the GI50 in the experiment on SF-268 was 28.4 µM (inactive); in the experiment on TK-10 it was 18.5 µM (inactive); in the experiment with MOLT-4 it was 15.5 µM (inactive); in the experiment on OVCAR-8, 38.5 µM (inactive); in the experiment with RXF 393, > 100 µM (inactive); with A549 it was 89.7 µM (inactive). Moreover, the GI50 with A498 is 10 µM (inactive); in the experiment with Hs-578T, > 100 µM (inactive).
On to `CC[C@H](C)[C@H]1NC(=O)[C@@H](NC(=O)[C@@H](CC(C)C)N(C)C(=O)C2C=CCN2)[C@@H](C)OC(=O)[C@H](Cc2ccc(OC)cc2)N(C)C(=O)[C@@H]2CCCN2C(=O)[C@H](CC(C)C)NC(=O)[C@@H](C)C(=O)[C@H](C(C)C)OC(=O)C[C@@H]1O` (stereo not given in full) (H-[ξΔPro][dNMeL]T[X37]LP[NMeY](Me); ester 3-C), for which the GI50 in the experiment with OVCAR-5, with NCI-H522, in the experiment on ACHN, with SF-295, in the experiment with HCC 2998 and with SNB-19 was < 0.005 µM (active) each time. In addition, the GI50 is < 0.005 µM (active) with OVCAR-4; 0.0617 µM (active) with NCI/ADR-RES; < 0.005 µM (active) with UACC-257; < 0.005 µM (active) in the experiment on DU-145; < 0.005 µM (active) in the experiment on PC-3; < 0.005 µM (active) in the experiment on BT-549. Moreover, the GI50 in the experiment with SF-268, in the experiment on TK-10, with MOLT-4, in the experiment on OVCAR-8, with RXF 393 and in the experiment with A549 was < 0.005 µM (active) in each case. Also, the values for the GI50 with A498 and in the experiment with Hs-578T were 0.00594 µM (active) and < 0.005 µM (active), respectively.
Take `CC(C)[C@](O)(C(=O)OCC1=CC[N+]2([O-])CC[C@@H](O)[C@@H]12)[C@H](C)O` (stereo not given in full) [INDICINE N-OXIDE]: the GI50 is > 10000 µM (inactive) in the experiment with OVCAR-5; > 7410 µM (inactive) in the experiment with NCI-H522; 4600 µM (inactive) in the experiment with ACHN; > 10000 µM (inactive) in the experiment with SF-295; > 10000 µM (inactive) with HCC 2998; > 10000 µM (inactive) in the experiment with SNB-19. The GI50 with OVCAR-4, in the experiment on NCI/ADR-RES, in the experiment on UACC-257, in the experiment with DU-145, with PC-3 and in the experiment with BT-549 was > 10000 µM (inactive) in each case. The GI50 with SF-268 is > 9930 µM (inactive); with TK-10, > 10000 µM (inactive); with MOLT-4, 8570 µM (inactive); in the experiment on OVCAR-8 it was 8110 µM (inactive); in the experiment on RXF 393 it was 7460 µM (inactive); in the experiment on A549 it was 5960 µM (inactive). For the same molecule, the results for the GI50 in the experiment on A498 and in the experiment on Hs-578T were 8970 µM (inactive) and > 5430 µM (inactive), respectively.
